In PubChem BioAssay (NCI):
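Exposure lasted 48 hours, with cells grown in 96-well plates and compounds tested at five concentrations. Here, GI50 denotes the concentration required for 50% inhibition of growth. At the TGI there is no net growth.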

How the values were obtained:
Test in all cases: inhibition of tumour cell growth, NCI panel, 48 h
[1] = system: 786-0 renal
[2] = system: A498 renal
[3] = system: A549 NSCLC
[4] = system: ACHN renal
[5] = system: BT-549 breast
[6] = system: CAKI-1 renal
[7] = system: CCRF-CEM leukemia
[8] = system: COLO 205 colon
[9] = system: DU-145 prostate
[10] = system: EKVX NSCLC
[11] = system: HCC-2998 colon
[12] = system: HCT-116 colon
[13] = system: HCT-15 colon
[14] = system: HL-60(TB) leukemia
[15] = system: HOP-62 NSCLC
[16] = system: HOP-92 NSCLC
[17] = system: HS 578T breast
[18] = system: HT29 colon
[19] = system: IGROV1 ovarian
[20] = system: KM12 colon
[21] = system: LOX IMVI melanoma
[22] = system: M14 melanoma
[23] = system: MALME-3M melanoma
[24] = system: MCF7 breast
[25] = system: MDA-MB-231 breast
[26] = system: MDA-MB-435
[27] = system: MOLT-4 leukemia
[28] = system: NCI-H226 lung
[29] = system: NCI-H23 lung
[30] = system: NCI-H460 lung
[31] = system: NCI-H522 lung
[32] = system: OVCAR-3 ovarian
[33] = system: OVCAR-4 ovarian
[34] = system: OVCAR-5 ovarian
[35] = system: OVCAR-8 ovarian
[36] = system: PC-3 prostate
[37] = system: RPMI-8226 leukemia
[38] = system: RXF 393 renal
[39] = system: SF-268 CNS
[40] = system: SF-295 CNS
[41] = system: SF-539 CNS
[42] = system: SK-MEL-2 melanoma
[43] = system: SK-MEL-5 melanoma
[44] = system: SK-OV-3 ovarian
[45] = system: SN12C renal
[46] = system: SNB-19 CNS
[47] = system: SNB-75 CNS
[48] = system: SR leukemia
[49] = system: SW-620 colon
[50] = system: T-47D breast
[51] = system: TK-10 renal
[52] = system: U251 CNS
[53] = system: UACC-257 melanoma
[54] = system: UACC-62 melanoma
[55] = system: UO-31 renal

## COc1ccc(NC(=O)c2sc3nc(C)c(C(=O)/C=C/c4ccccc4)cc3c2N)cc1
[1]
  GI50: 821 nM
  TGI: 1670 nM
[2]
  GI50: 890 nM
  TGI: 3.22 µM
[3]
  GI50: 749 nM
  TGI: 2130 nM
[4]
  GI50: 888 nM
  TGI: 1740 nM
[5]
  GI50: 938 nM
  TGI: 2230 nM
[6]
  GI50: 953 nM
  TGI: 1820 nM
[7]
  GI50: 1260 nM
  TGI: 9.94 µM
[8]
  GI50: 1430 nM
  TGI: 5.18 µM
[9]
  GI50: 1300 nM
  TGI: 3.72 µM
[10]
  GI50: 1620 nM
  TGI: 8.85 µM
[11]
  GI50: 901 nM
  TGI: 1760 nM
[12]
  GI50: 849 nM
  TGI: 1780 nM
[13]
  GI50: 892 nM
  TGI: 2070 nM
[14]
  GI50: 971 nM
  TGI: 2500 nM
[15]
  GI50: 1260 nM
  TGI: 3.16 µM
[16]
  GI50: 1390 nM
  TGI: 6.65 µM
[17]
  GI50: 2050 nM
  TGI: > 50 µM
[18]
  GI50: 883 nM
  TGI: 1940 nM
[19]
  GI50: 859 nM
  TGI: 2090 nM
[20]
  GI50: 897 nM
  TGI: 1870 nM
[21]
  GI50: 863 nM
  TGI: 1610 nM
[22]
  GI50: 1750 nM
  TGI: 10.3 µM
[23]
  GI50: 1930 nM
  TGI: 21.6 µM
[24]
  GI50: 815 nM
  TGI: 6 µM
[25]
  GI50: 1760 nM
  TGI: 12.6 µM
[26]
  GI50: 1040 nM
  TGI: 2960 nM
[27]
  GI50: 1430 nM
  TGI: > 50 µM
[28]
  GI50: 1110 nM
  TGI: 2870 nM
[29]
  GI50: 1570 nM
  TGI: 6.09 µM
[30]
  GI50: 931 nM
  TGI: 2080 nM
[31]
  GI50: 943 nM
  TGI: 2420 nM
[32]
  GI50: 1090 nM
  TGI: 2730 nM
[33]
  GI50: 4.43 µM
  TGI: > 50 µM
[34]
  GI50: 1110 nM
  TGI: 3.26 µM
[35]
  GI50: 1420 nM
  TGI: 5.22 µM
[36]
  GI50: 1250 nM
  TGI: 3.89 µM
[37]
  GI50: 860 nM
  TGI: 2740 nM
[38]
  GI50: 820 nM
  TGI: 1620 nM
[39]
  GI50: 1570 nM
  TGI: 5.93 µM
[40]
  GI50: 1870 nM
  TGI: 9.2 µM
[41]
  GI50: 951 nM
  TGI: 1840 nM
[42]
  GI50: 3.78 µM
  TGI: 17.5 µM
[43]
  GI50: 2030 nM
  TGI: 7.22 µM
[44]
  GI50: 3.33 µM
  TGI: 12.7 µM
[45]
  GI50: 1100 nM
  TGI: 2850 nM
[46]
  GI50: 1300 nM
  TGI: 4.02 µM
[47]
  GI50: 1220 nM
  TGI: 3.53 µM
[48]
  GI50: 1070 nM
  TGI: 4 µM
[49]
  GI50: 966 nM
  TGI: 2240 nM
[50]
  GI50: 1250 nM
  TGI: 4.37 µM
[51]
  GI50: 1350 nM
  TGI: 3.59 µM
[52]
  GI50: 889 nM
  TGI: 1680 nM
[53]
  GI50: 1190 nM
  TGI: 3.56 µM
[54]
  GI50: 934 nM
  TGI: 1960 nM
[55]
  GI50: 748 nM
  TGI: 1440 nM
